Laboratory results reported in PMC8035703, “Effect of Synchronous Versus Sequential Regimens on the Pharmacokinetics and Biodistribution of Regorafenib with Irradiation” (Pharmaceutics, 2021).
“And” between values parts separate entries of the source, which are not always exact repeats. Equal values may be shown once. Read-outs that look alike come from different tables or passages of the source. Marks after values point to notes of the source that are not given here.

Assay: Pharmacokinetics of regorafenib in plasma of freely moving rats with or without RT (HPLC-UV)
Assay type: in vivo, Sprague-Dawley rats
Conditions: for MRT / Tmax / half-life: plasma, po, 16 mg/kg; for half-life: read-out: t½
Protocol: The Institutional Animal Experimentation Committee of National Yang-Ming University, Taipei, Taiwan, and the Institutional Animal Care and Use Committee (IACUC, approval number 1070523) reviewed and approved the protocol. The Laboratory Animal Center at National Yang-Ming University (Taipei, Taiwan) provided adult male Sprague-Dawley rats (300 ± 20 g body weight). A pathogen-free environment with a 12 h light–dark cycle, with access to water ad libitum and food (laboratory rodent diet 5P14, PMI Feeds, Richmond, IN, USA), was provided for the animals.
A freely moving rat model was designed for the current study. The rats were anaesthetized and immobilized on a board, while undergoing computed tomography for localization of the whole liver or a central area 1.5 cm × 1.5 cm in size for the SBRT technique. For the whole liver field, the cranial margin was set 5 mm from the top of the diaphragm, and the caudal margin was set 5 mm lower than the liver margin. The whole liver was targeted for irradiation. The experimental animals were randomized to groups receiving sham RT, one or three fractions of RT2 Gy and RT9 Gy with current or sequential regorafenib. Data were collected from six rats in each group.
According to the formula used to translate doses from animal to human, human equivalent dose (HED, mg/kg) = animal dose (mg/kg) × animal km/human km, we calculated the daily dose of regorafenib for rats to be 16 (mg/kg/day). The rats were randomly divided into ten groups with six rats in each group. The concurrent groups treated with regorafenib 1 h after RT, in the same day, to mimic regorafenib concurrent with RT in the daily practice. The sequential groups treated with regorafenib following RT (not in the same day), to mimic RT followed by regorafenib in the daily practice. The one fraction study group included (A) a sham group, regorafenib with RT0 Gy (regorafenib × 1 d); concurrent groups treated with regorafenib 1 h after (B) RT2 Gy with 1 fraction (RT2 Gy × 1 f’x) and (D) RT9 Gy with 1 fraction (RT9 Gy × 1 f’x); and sequential groups treated with regorafenib 24 h after (C) RT2 Gy × 1 f’x and (E) RT9 Gy × 1 f’x. Continued treatment mimicking clinical practice was applied to (A) a sham group, regorafenib (p.o. (per os), q.d. × 3 d) with RT0 Gy (regorafenib × 3 d); concurrent groups treated with regorafenib (p.o., q.d. × 3 d) 1 h after (B) RT2 Gy with 3 fractions (RT2 Gy × 3 f’x) and (D) RT9 Gy with 3 fractions (RT9Gy × 3 f’x); and sequential groups treated with regorafenib 24 h (p.o., q.d. × 3 d) after (C) RT2 Gy × 3 f’x and (E) RT9 Gy × 3 f’x. (Figure 1A,B).
A 150 µL blood sample was withdrawn from the jugular vein with a fraction collector at 0.25, 0.5, 0.75, 1, 1.5, 2, 2.5, 3, 3.5 and 4 h, following drug administration. The samples were centrifuged for 10 min, at 4200× g. Then, 50 µL of the resulting plasma was vortexed with 1 mL of ethyl acetate and centrifuged at 5900× g. The upper layer was transferred to a new tube and evaporated to dryness.
The HPLC system included chromatographic pumps (LC-20AT; Shimadzu Co., Kyoto, Japan), an autosampler (SIL-20AC; Shimadzu Co., Kyoto, Japan) and a UV–Vis detector (SPDM20A; Shimadzu Co., Kyoto, Japan). A Waters Acquity C^18 column (50 × 2.1 mm, particle size 1.7 μm, Eclipse XDB, Agilent, Palo Alto, CA, USA) was used for sample analysis. The mobile phase consisted of potassium dihydrogen phosphate (10 mM, pH = 3) and acetonitrile (55:45, v/v). The flow rate was set to 0.2 mL/min, and the injection volume was 5 μL. The temperature in the autosampler was set to 40 °C. The UV–Vis detector scanned from 190 to 300 nm, and the chromatographic profiles were monitored at 265 nm for regorafenib and diethylstilbestrol (internal standard (IS)).
The process for sample extraction was as follows: 50 μL of rat plasma was mixed with internal standard (10 μL, IS, diethylstilbestrol) solution and methanol (140 μL) for protein precipitation. […]

[1] = male, Sprague-Dawley, rat, rat plasma, 16 mg/kg p.o. × 1 d, no RT
[2] = male, Sprague-Dawley, rat, rat plasma, 16 mg/kg p.o. × 3 d, no RT
[3] = male, Sprague-Dawley, rat, rat plasma, RT2 Gy × 1 f'x followed by regorafenib 16 mg/kg p.o. × 1 d (sequential)
[4] = male, Sprague-Dawley, rat, rat plasma, RT2 Gy × 1 f'x with regorafenib 16 mg/kg p.o. × 1 d (concurrent)
[5] = male, Sprague-Dawley, rat, rat plasma, RT2 Gy × 3 f'x followed by regorafenib 16 mg/kg p.o. × 3 d (sequential)
[6] = male, Sprague-Dawley, rat, rat plasma, RT2 Gy × 3 f'x with regorafenib 16 mg/kg p.o. × 3 d (concurrent)
[7] = male, Sprague-Dawley, rat, rat plasma, RT9 Gy × 1 f'x followed by regorafenib 16 mg/kg p.o. × 1 d (sequential)
[8] = male, Sprague-Dawley, rat, rat plasma, RT9 Gy × 1 f'x with regorafenib 16 mg/kg p.o. × 1 d (concurrent)
[9] = male, Sprague-Dawley, rat, rat plasma, RT9 Gy × 3 f'x followed by regorafenib 16 mg/kg p.o. × 3 d (sequential)
[10] = male, Sprague-Dawley, rat, rat plasma, RT9 Gy × 3 f'x with regorafenib 16 mg/kg p.o. × 3 d (concurrent)
[11] = rat plasma, 16 mg/kg p.o. × 1 d, no RT
[12] = rat plasma, 16 mg/kg p.o. × 3 d, no RT
[13] = rat plasma, RT2 Gy × 1 f'x followed by regorafenib 16 mg/kg p.o. × 1 d (sequential)
[14] = rat plasma, RT2 Gy × 1 f'x with regorafenib 16 mg/kg p.o. × 1 d (concurrent)
[15] = rat plasma, RT2 Gy × 3 f'x followed by regorafenib 16 mg/kg p.o. × 3 d (sequential)
[16] = rat plasma, RT2 Gy × 3 f'x with regorafenib 16 mg/kg p.o. × 3 d (concurrent)
[17] = rat plasma, RT9 Gy × 1 f'x followed by regorafenib 16 mg/kg p.o. × 1 d (sequential)
[18] = rat plasma, RT9 Gy × 1 f'x with regorafenib 16 mg/kg p.o. × 1 d (concurrent)
[19] = rat plasma, RT9 Gy × 3 f'x followed by regorafenib 16 mg/kg p.o. × 3 d (sequential)
[20] = rat plasma, RT9 Gy × 3 f'x with regorafenib 16 mg/kg p.o. × 3 d (concurrent)

## CNC(=O)c1cc(Oc2ccc(NC(=O)Nc3ccc(Cl)c(C(F)(F)F)c3)c(F)c2)ccn1 [regorafenib, Regorafenib]
Concurrent RT2 Gy × 1 f'x vs sham RT (regorafenib × 1 d), rat
  Decrease of plasma AUCregorafenib: 33.0%
Concurrent RT2 Gy × 3 f'x vs regorafenib × 3 d, rat
  Decrease of plasma AUCregorafenib: 74%
Concurrent RT9 Gy × 3 f'x vs regorafenib × 3 d, rat
  Decrease of plasma AUCregorafenib: 69% and 69.4%
male, Sprague-Dawley, oral, rat plasma collected 180 min after regorafenib 16 mg/kg p.o. alone
  concentration at 180 min: 1500 ng/mL
[1]
  MRT: 24.7 h
  Tmax: 3.17 h
  half-life: 15.7 ± 8.92 h
[2]
  MRT: 13.7 h
  Tmax: 1.5 h
  half-life: 9.17 ± 2.43 h
[3]
  MRT: 9.22 h
  Tmax: 3 h
  half-life: 5.77 ± 1.55 h
[4]
  MRT: 10.8 h
  Tmax: 2.75 h
  half-life: 6.82 ± 2.5 h
[5]
  MRT: 22.8 h
  Tmax: 1.67 h
  half-life: 15.3 ± 15.9 h
[6]
  MRT: 9.73 h
  Tmax: 2.08 h
  half-life: 6.2 ± 2.53 h
[7]
  MRT: 15.6 h
  Tmax: 2.58 h
  half-life: 10.1 ± 3.5 h
[8]
  MRT: 16.3 h
  Tmax: 2.58 h
  half-life: 10.9 ± 7.42 h
[9]
  MRT: 14.3 h
  Tmax: 1.83 h
  half-life: 9.52 ± 5.38 h
[10]
  MRT: 16.4 h
  Tmax: 1.63 h
  half-life: 11 ± 9.97 h
off-target or SBRT dose, × 1 f'x, concurrent, rat
  Decrease of regorafenib levels (AUC) by a single fraction of RT, concurrent regimen: ~35%
Rat plasma
  AUCregorafenib, sequential RT2 Gy × 3 f'x relative to concurrent RT2 Gy × 3 f'x: 2.0 fold
[11]
  Cl: 8.18 ± 3.06 mL/min/kg
  Vss: 12641.9 ± 6928.9 mL/kg
[12]
  Cl: 4.21 ± 1.82 mL/min/kg
  Vss: 3604.5 ± 951.1 mL/kg
[13]
  Cl: 6.19 ± 0.35 mL/min/kg
  Vss: 3081.4 ± 773.1 mL/kg
[14]
  Cl: 16.6 ± 7.21 mL/min/kg
  Vss: 21606.9 ± 20731.8 mL/kg
[15]
  Cl: 8.56 ± 7.21 mL/min/kg
  Vss: 4156.0 ± 1959.9 mL/kg
[16]
  Cl: 23.20 ± 9.45 ^n mL/min/kg
  Vss: 12759.6 ± 8467.4 ^p mL/kg
[17]
  Cl: 3.3 ± 4.3 mL/min/kg
  Vss: 2898.8 ± 4123.7 mL/kg
[18]
  Cl: 34.6 ± 25.3 mL/min/kg
  Vss: 30999.0 ± 34618.0 mL/kg
[19]
  Cl: 11.4 ± 4.5 mL/min/kg
  Vss: 7960.3 ± 3023.5 ^r mL/kg
[20]
  Cl: 19.0 ± 11.7 ^o mL/min/kg
  Vss: 11564.4 ± 3361.0 ^q mL/kg
Sequential RT2 Gy × 1 f'x vs regorafenib × 1 d, rat
  Increase of plasma AUCregorafenib: 182.8%
Sequential RT2 Gy × 3 f'x vs regorafenib × 3 d, rat
  Decrease of plasma AUCregorafenib: 20.7%
Sequential RT9 Gy × 1 f'x vs regorafenib × 1 d, rat
  Increase of plasma AUCregorafenib: 213.2%
Sequential RT9 Gy × 3 f'x vs regorafenib × 3 d, rat
  Decrease of plasma AUCregorafenib: 45.8%
